Data published in patent US5164188A, “Biodegradable ocular implants” (Visionex, Inc., priority 1989, dated 1992).
Like-named read-outs stand apart in the source and are kept apart here.

Tests used:
in vivo [1] = settings: rabbit
[2] = rabbit, in vivo
[3] = rabbit, in vivo; remark: listed apart in the source
in vivo [4] = settings: rabbit; remark: listed apart in the source
[5] = MTX level in eye, plaque in pars plana (EMIT); format: in vivo, rabbit; settings: for Drug level, LE PC: left eye, posterior chamber, plaque in one eye only
[6] = MTX level in eye, microcapsules in pars plana (EMIT); format: in vivo, rabbit; settings: for Drug level, LE PC: left eye, posterior chamber, microcapsule in one eye only
VX2 adenocarcinoma = settings: in vitro; cited from earlier work

Compound: C[C@]12CCC(=O)C=C1CC[C@@H]1[C@@H]2[C@@H](O)C[C@@]2(C)[C@H]1CC[C@]2(O)C(=O)CO [Hydrocortisone, hydrocortisone]
- concentration at 720 h (in vivo [1]): 1300 ng/mL
- concentration at 1440 h (in vivo [1]): 1900 ng/mL
- concentration at 2160 h (in vivo [1]): 2300 ng/mL
- Drug level, RE PC ([2]; 10080 min): 0 ng/mL
- Drug level, RE PC ([2]; 20160 min): 0 ng/mL
- Drug level, RE PC ([2]; 30240 min): 0 ng/mL
- Drug level, RE PC ([2]; 40320 min): 0 ng/mL
- Drug level, RE PC ([2]; 50400 min): 0 ng/mL
- Drug level, RE PC ([2]; 60480 min): 0 ng/mL
- Drug level, RE PC ([3]; 43200 min): 0 ng/mL
- Drug level, RE PC ([3]; 86400 min): 0 ng/mL
- Drug level, RE PC ([3]; 129600 min): 0 ng/mL
- concentration at 168 h (in vivo [4]): 1300 ng/mL
- concentration at 336 h (in vivo [4]): 2000 ng/mL
- concentration at 504 h (in vivo [4]): 2400 ng/mL
- concentration at 672 h (in vivo [4]): 1100 ng/mL
- concentration at 840 h (in vivo [4]): 900 ng/mL
- concentration at 1008 h (in vivo [4]): 2000 ng/mL

Compound: CN(Cc1cnc2nc(N)nc(N)c2n1)c1ccc(C(=O)N[C@@H](CCC(=O)O)C(=O)O)cc1 [MTX, methotrexate]
- Drug level, LE PC ([5]; 1 mo): 0 ng/mL
- Drug level, LE PC ([5]; 2 mos): 0 ng/mL
- Drug level, LE PC ([5]; 3 mos): 0 ng/mL
- concentration at 720 h ([5]; rabbit, posterior chamber of eye, right eye, 1 mo, plaque, read-out: Drug level, RE PC): 1500 ng/mL
- concentration at 1440 h ([5]; rabbit, posterior chamber of eye, right eye, 2 mos, plaque, read-out: Drug level, RE PC): 4000 ng/mL
- concentration at 2160 h ([5]; rabbit, posterior chamber of eye, right eye, 3 mos, plaque, read-out: Drug level, RE PC): 2000 ng/mL
- Drug level, LE PC ([6]; 1 wk): 0 ng/mL
- Drug level, LE PC ([6]; 2 wks): 0 ng/mL
- Drug level, LE PC ([6]; 3 wks): 0 ng/mL
- Drug level, LE PC ([6]; 4 wks): 0 ng/mL
- Drug level, LE PC ([6]; 5 wks): 0 ng/mL
- Drug level, LE PC ([6]; 6 wks): 0 ng/mL
- concentration at 168 h ([6]; rabbit, posterior chamber of eye, right eye, 1 wk, microcapsule, read-out: Drug level, RE PC): 800 ng/mL
- concentration at 336 h ([6]; rabbit, posterior chamber of eye, right eye, 2 wks, microcapsule, read-out: Drug level, RE PC): 1200 ng/mL
- concentration at 504 h ([6]; rabbit, posterior chamber of eye, right eye, 3 wks, microcapsule, read-out: Drug level, RE PC): 1400 ng/mL
- concentration at 672 h ([6]; rabbit, posterior chamber of eye, right eye, 4 wks, microcapsule, read-out: Drug level, RE PC): 700 ng/mL
- concentration at 840 h ([6]; rabbit, posterior chamber of eye, right eye, 5 wks, microcapsule, read-out: Drug level, RE PC): 1000 ng/mL
- concentration at 1008 h ([6]; rabbit, posterior chamber of eye, right eye, 6 wks, microcapsule, read-out: Drug level, RE PC): 900 ng/mL

Compound: CC[C@]1(O)C[C@H]2CN(CCc3c([nH]c4ccccc34)[C@@](C(=O)OC)(c3cc4c(cc3OC)N(C=O)[C@H]3[C@@](O)(C(=O)OC)[C@H](OC(C)=O)[C@]5(CC)C=CCN6CC[C@]43[C@@H]65)C2)C1 [Vincristine]
- IC50 (VX2 adenocarcinoma): 2 to 3 ng/mL
